Laboratory results taken from patent publication US20250319067A1, “Improved Pharmacokinetics of Tryptamine Prodrugs” (Reunion Neuroscience, Inc., priority 2023, published 2025).

Legend:
[1] = target: human recombinant 5-HT2A receptors (Homo sapiens, UniProt P28223); assay: 5-HT2A agonist radioligand binding assay ([125I]DOI)
Description: (§4) Increasing concentrations of RE104 were incubated with 0.2 nM [^125I]DOI in CHO cell cultures expressing human recombinant 5-HT2B receptors.
(§5) Radioligand concentration was measured by scintillation counting; compound binding was calculated as percent inhibition of the binding of [^125I]DOI. In agonist activity assays, test concentrations of RE104 were incubated with HEK-293 cells expressing human recombinant 5-HT2A receptors; IP1 production was detected using homogeneous time-resolved fluorescence. Activation was calculated as a percentage of the response to the positive control (10 μM 5-HT).
(§6) Inhibition constants were calculated by using the Cheng-Prusoff equation Ki=IC50/(1+L/KD), where L=radioligand concentration and KD=radioligand affinity for the receptor (determined with a Scatchard plot). In the functional activity assay test concentrations of RE104 were 10 nM, 30 nM, 100 nM, 300 nM, 1 μM, 3 μM, 10 μM, and 30 μM. EC50 and IC50 values were determined by nonlinear regression analysis of the concentration-response curves generated with mean replicate values using Hill equation curve fitting.

[2] = target: human recombinant 5-HT2B receptors (Homo sapiens, UniProt P41595); assay: 5-HT2B agonist radioligand binding assay ([125I]DOI)
Description: as §4, §5, §6

dogs = assay: GLP 14-day extended single SC dose toxicity study in dogs
rabbit hepatocytes = assay: Hepatocyte intrinsic clearance, rabbit; assay type: in vitro ADME
Text: In human, rat, rabbit, dog and monkey hepatocytes, the metabolite profile of RE104 was qualitatively similar across these species with only minor differences.

[3] = Prodrug cleavage in human plasma; assay type: in vitro ADME; conditions: human plasma, 37° C.
Description: (§1) Mean values from 3 replicate assays are reported. See the Supplemental Methods for additional details.
(§2) Triplicate aliquots (50 μL) of each spiked plasma solution were immediately added to 200 μL of ice-cold methanol/acetonitrile solution (50:50 v/v) containing the internal standards to generate time zero samples. Spiked plasma solutions were incubated at 37° C. in an orbital shaker set to 75 rpm, and 50-μL samples were taken in triplicate after 30 minutes and 1, 2, and 4 hours of incubation. Each sample was immediately added to 200 μL ofice-cold methanol/acetonitrile solution containing the internal standard(s) to terminate the reaction. Samples were mixed by vortex and then stored at −80° C. until analysis.
(§3) Calibration standards were prepared in plasma for each species and analyzed in batches by LC-MS/MS. Sample batches consisted of 3 replicates of a system suitability standard (containing the analyte and internal standard), the appropriate calibration standards in ascending order including a blank sample without internal standard, a zero sample (with internal standard), and at least 6 nonzero standards and the assay samples, followed by the 3 replicates of the system suitability sample.

[4] = Rat plasma PK after IV, PO, SC RE104 or 4-OH-DiPT (Example 3); conditions: 2 mg/kg RE104 IV, vs AUC0-- of equimolar IV 4-OH-DiPT
Description: The concentration of test compounds was determined in plasma by LC-MS/MS. […] Pharmacokinetic parameters for each analyte and route of administration were estimated from the plasma concentration-versus-time curves for each animal. Head-twitch response (HTR), also referred to as wet dog shakes, was assessed by observing rats for automatisms consisting of rapid and alternating head rotations (González-Maeso et al. and Halberstadt et al.); HTRs were manually counted using 10-minute intervals up to 2 hours after dosing and again at 3, 3.5, and 4 hours after dosing.
Pharmacokinetic parameters were calculated using Phoenix WinNonlin, version 6.3 or 8.2 (Certara, Princeton, NJ, USA).
For rat PK assessments, approximately 0.25 mL blood was serially collected at 8 time points over 6 hours (5, 15, 30, and 45 minutes, and 1, 2, 4, and 6 hours after dosing) via a surgically placed carotid artery catheter and immediately transferred to tubes containing K2EDTA on ice. For dog PK assessments, approximately 0.5 mL of blood was collected via superficial vein before dose and at 5 (for IV and SC injections only), 15, and 30 minutes and 1, 2, 4, 8, 16, 24, 48, and 72 hours post dose into tubes containing K2EDTA with 10 mM Dichlorvos as the anticoagulant and stabilizer, respectively. […]

[5] = Conversion in aqueous solution; assay type: physicochemical; conditions: as a function of pH
[6] = Prodrug cleavage in rat plasma; assay type: in vitro ADME; conditions: 37° C.
Description: as §1, §2, §3

Sequence of human recombinant 5-HT2A receptors (P28223 whole entry): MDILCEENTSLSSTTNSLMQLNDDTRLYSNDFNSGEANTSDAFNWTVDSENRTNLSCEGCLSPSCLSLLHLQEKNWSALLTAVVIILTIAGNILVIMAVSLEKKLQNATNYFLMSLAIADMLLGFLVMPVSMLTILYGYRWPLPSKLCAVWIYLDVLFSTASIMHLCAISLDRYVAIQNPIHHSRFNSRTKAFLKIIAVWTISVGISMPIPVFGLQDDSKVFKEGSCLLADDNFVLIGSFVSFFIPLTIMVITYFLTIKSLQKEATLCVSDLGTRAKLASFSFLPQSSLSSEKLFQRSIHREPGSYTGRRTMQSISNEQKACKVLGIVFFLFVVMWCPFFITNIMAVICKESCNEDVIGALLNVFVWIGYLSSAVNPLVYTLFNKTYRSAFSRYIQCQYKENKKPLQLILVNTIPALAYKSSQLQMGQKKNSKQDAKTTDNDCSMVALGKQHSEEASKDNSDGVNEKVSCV
Sequence of human recombinant 5-HT2B receptors (P41595 whole entry): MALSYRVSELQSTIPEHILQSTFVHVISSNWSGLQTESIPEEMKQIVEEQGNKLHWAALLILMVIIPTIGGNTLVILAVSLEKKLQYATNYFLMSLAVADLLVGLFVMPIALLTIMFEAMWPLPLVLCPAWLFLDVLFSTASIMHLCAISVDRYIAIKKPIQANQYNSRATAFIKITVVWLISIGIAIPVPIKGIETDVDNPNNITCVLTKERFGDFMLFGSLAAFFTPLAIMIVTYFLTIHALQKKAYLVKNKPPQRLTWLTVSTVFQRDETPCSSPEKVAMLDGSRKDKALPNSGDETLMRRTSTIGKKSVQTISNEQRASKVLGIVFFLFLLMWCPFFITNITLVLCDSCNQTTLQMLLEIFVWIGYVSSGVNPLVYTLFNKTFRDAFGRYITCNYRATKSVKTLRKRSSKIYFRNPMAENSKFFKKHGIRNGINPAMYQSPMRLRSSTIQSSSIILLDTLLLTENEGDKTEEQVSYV

CC(C)N(CCc1c[nH]c2cccc(OC(=O)CCCC(=O)O)c12)C(C)C [RE104]
IC50 [1]: 1600 nM | Ki ([1]; read-out: binding Ki at the 5-HT2A receptor, radioligand inhibition binding, HEK-293 cells): 4300 nM | IC50 [2]: 740 nM | Ki ([2]; read-out: binding Ki at the 5-HT2B receptor, CHO cells): 1800 nM | 1/10 of HED (dogs; dog): 0.44 mg/kg | 1/10 of Human BSA dose (dogs; dog): 25.9 mg | Human BSA dose (dogs; dog): 160 mg/m^2 | safety margin relative to proposed starting dose (dogs; dog HED vs 5 mg (zwitterion)): approximately 53 fold | safety margin relative to proposed maximum dose (dogs; dog HED vs 48 mg (zwitterion)): ~5 fold | HED (dogs; dog NOAEL, BSA conversion factors): 4.4 mg/kg | Human BSA dose (dogs; dog, based on a BSA of 1.62 m^2): 259 mg | HED of 8 mg/kg in the dog (dogs; expressed as zwitterion, 60 kg human, BSA conversion): approximately 267 mg | in vitro intrinsic clearance (CLint) (rabbit hepatocytes): 4.88 mL/hr/106 cells | completeness of conversion [3]: > 95% | time of conversion to 4-OH-DiPT [3]: < 30 min | fm (fraction metabolized) [4]: 96.7% | conversion in aqueous solution [5]: slow conversion | completeness of conversion [6]: > 95% | time of conversion to 4-OH-DiPT [6]: < 30 min
